# Assay results taken from US6562829B1, “Treatment of hepatic cirrhosis” (Hadasit Medical Research Services & Development Co., Ltd., priority 1997, dated 2003).
# Like-named read-outs stand apart in the source and are kept apart here.
# Assays:
# [1] = system: dimethylnitrosamine-induced hepatic fibrosis; test: Dimethylnitrosamine-induced severe liver fibrosis in rats (Example 1); type: in vivo
# Experimental: The experimental method was as follows. Male Sprague-Dawley rats were divided into four groups. Two groups were injected intraperitoneally with 1% dimethylnitrosamine in saline for three consecutive days per week for 3 weeks, at a dose of 1 ml/kg body weight. This dosage regimen will induce severe liver fibrosis. The other two groups of rats, control rats, were injected with saline. One group of dimethylnitrosamine-treated rats and one control group were fed Halofuginone in the diet at a dose of 5 mg/kg weight of diet, starting three days before the dimethylnitrosamine injections were administered. At the end of the experimental period, the rats were sacrificed and the liver was removed and weighed.
# (§1) Liver samples were taken for histological examination. Briefly, the tissue samples were collected into phosphate-buffered saline (PBS) and fixed overnight in 4% paraformaldehyde in PBS at 4° C. Serial 5 μm sections were prepared after the samples had been dehydrated in graded ethanol solutions, cleared in chloroform and embedded in Paraplast. Differential staining of collagenous and non-collagenous proteins was performed with 0.1% Sirius red and 0.1% fast green as a counter-stain in picric acid. This procedure stains collagen red [Gascon-Barre, M., et al., J. Histochem. Cytochem., 37:377-381, 1989].
# Liver samples were then hybridized with a probe for rat collagen α1(I) expression. For hybridization with the genetic probe, the sections were deparafinized in xylene, rehydrated through a graded series of ethanol solutions, rinsed in distilled water for 5 minutes and then incubated in 2×SSC at 70° C. for 30 minutes. The sections were then rinsed in distilled water and treated with pronase, 0.125 mg/ml in 50 mM Tris-HCl, 5 mM EDTA, pH 7.5, for 10 minutes. After digestion, the slides were rinsed with distilled water, post-fixed in 10% formalin in PBS and blocked in 0.2% glycine. After blocking, the slides were rinsed in distilled water, rapidly dehydrated through graded ethanol solutions and air-dried for several hours. Before hybridization, the 1600 bp rat collagen α1(I) insert was cut out from the original plasmid, pUC18, and inserted into the pSafyre plasmid. The sections were then hybridized with this probe after digoxigenin-labeling [M. Pines et al., Matrix Biology, 14:765-71, 1996].
# [2] = system: mild dimethylnitrosamine-induced fibrosis; test: Mild dimethylnitrosamine-induced fibrosis in rat liver (Example 2); type: in vivo; settings: 4 weeks
# Experimental: The specific experimental method used was similar to that of Example 1, except that the dimethylnitrosamine-treated rats were only given 0.25% dimethylnitrosamine in saline, a much lower dose than that given in Example 1 above. Also, the duration of treatment was longer before the rats were sacrificed: 4 weeks as opposed to 3 weeks in Example 1.
# The expression of the collagen α1(I) gene was measured as described in Example 1 above. For hydroxyproline analysis, liver samples were hydrolyzed for 22 hours at 110° C. with 6 N HCl. Nitrogen was determined after Kjeldahl digestion by the spectrophotometric procedure using an autoanalyzer as described by Krom [M. D. Krom, Analyst, 105:305-16, 1980]. The collagen-unique amino acid hydroxyproline from the same hydrolysate was determined by amino acid analysis (Biotronik LC 5000, Germany) after post-column derivatization on a cation exchange column (BTC 2710, Biotronik). The results are expressed as the percentage of collagen in total liver proteins.
# [3] = system: TAA-induced liver cirrhosis; type: in vivo, rat
# Experimental: (§2) Male Sprague-Dawley rats were divided into three groups. Two groups were injected intraperitoneally with TAA twice weekly for 12 weeks, at a dose of 200 mg/kg body (Muller, A. et al., Exp. Pathol., 34:229-236, 1988; Hori, N. et al., Dig. Dis. Sci., 38:2195-2202, 1993). […] The other group of rats, control rats, was injected with saline. One group of TAA-treated rats and one control group were fed Halofuginone in the diet at a dose of 5 ppm.
# For this experiment, rats in group 1 received only Halofuginone (n=4); rats in group 2 received TAA alone without Halofuginone (n=6); and rats in group 3 received TAA with Halofuginone (n=6). Groups 1and 3 received Halofuginone starting three days before the TAA injections were administered. At the end of the experimental period, the rats were sacrificed and the liver was removed and weighed.
# as §1
# In addition, the livers were scored in a double-blind evaluation, on a scale of 0-4, for the appearance of fibrotic tissue.
# collagen type I = settings: as demonstrated in U.S. Pat. No. 5,449,678; cited from earlier work
# [4] = system: TAA-induced liver cirrhosis; test: Treatment of existing TAA-induced liver cirrhosis in rats (Example 4); type: in vivo, rat
# Experimental: as §2, §1
# In addition, the livers were scored in a double-blind evaluation, on a scale of 0-4, for the appearance of fibrotic tissue. […]
# [5] = system: bile duct ligation-induced fibrosis; type: in vivo, rat
# From the text: In addition to dimethylnitrosamine-induced liver fibrosis, a second model of liver fibrosis in rats is available. […] Tox., 15:449-453, 1995]. Thus, the particular advantage of the bile duct ligation model is that any protective treatments must directly protect the liver from the pathological changes induced by fibrosis, rather than indirectly altering the effects of the exogeneous substance which is used to cause liver fibrosis in the animal model. The experimental method was as follows.
# Male Wistar rats, weighing 200-250 g, were divided into four experimental groups with 3 rats in each group. […] It should be noted that all animals in the first two groups underwent sham operations which included all steps of the actual surgical procedure, with the exception of the bile duct ligation itself. The third group had bile duct ligation surgery and was not given Halofuginone. The fourth group had bile duct ligation surgery and was given Halofuginone. The actual surgical procedure was essentially similar to that reported in the literature [Kountaras, J. et al., Br. J. Exp. Pathol., 65:305-311, 1984].
# All animals were given drinking water ad libitum. Rats which were given Halofuginone were fed Halofuginone in the normal rat diet at a concentration of 5 mg per kg diet weight for one week before surgery and for the duration of the experimental period, which was either 3 or 7 days after the surgical operation. Rats were sacrificed at the end of the experimental period. Both collagen content (through Sirius red staining) and collagen α1(I) gene expression were measured as described above in Example 1. In addition, serum alkaline phosphatase, alanine aminotransferase and aspartate aminotransferase levels were measured […] by a Hitachi Auto-analyzer System of Boerringher-Mannheim.
# stellate cells [6] = test: Smooth muscle actin in stellate cells, TAA treatment experiment (Example 5); type: in vivo, rat; settings: Halofuginone administered after induction of liver cirrhosis by TAA
# From the text: (§3) Liver cirrhosis was induced with TAA as previously described. […] These cells are located in the subendothelial space, between the apical membrane of hepatocytes and the ablumenal side of the sinusoidal endothelial cells. The intimate association between the stellate cells and the neighboring cell types facilitates intercellular transport and paracrine stimulation by soluble mediators. In injured liver, these cells acquire features of myofibroblasts and express smooth muscle cytoskeletal markers such as smooth muscle actin. […] The experimental method was as follows.
# (§4) Rats were treated with TAA alone or TAA with Halofuginone as previously described in Example 4 for the use of Halofuginone as both a prophylactic treatment and a treatment for existing liver cirrhosis. Tissue samples were also prepared as previously described, except that rather than undergoing staining for collagen, the samples were incubated with smooth muscle actin antibodies in a 1:1000 dilution, with detection performed by the Histomouse SP kit according to the instructions of the manufacturer (Zymed Laboratories Inc., San Francisco, Calif., USA).
# stellate cells [7] = test: Smooth muscle actin in stellate cells, TAA prevention experiment (Example 5); type: in vivo, rat; settings: prophylactic administration of Halofuginone with TAA
# From the text: as §3, §4
# [8] = bile duct ligated rats fed Halofuginone vs bile duct ligation only
# [9] = bile duct ligated rats, Halofuginone 5 mg per kg diet
structure (smiles),measurement,setting,value
O=C(CC1NCCC[C@H]1O)Cn1cnc2cc(Br)c(Cl)cc2c1=O (some centres unmarked) [Halofuginone],toxicity (survival),"[1]; Halofuginone alone, 5 mg/kg diet, all six rats survived",no toxicity
same,liver weight,"[1]; rat, in vivo",11 ± 1.5 g
same,expression of collagen α1(I) gene in liver (in situ hybridization),"[1]; rats given 1% dimethylnitrosamine i.p. and Halofuginone 5 mg/kg diet, 3 weeks, compared to dimethylnitrosamine alone",marked reduction
same,liver weight,"[1]; rats given both Halofuginone and dimethylnitrosamine, dimethylnitrosamine alone 4.5 g and 5.0 g",8.5 ± 1.7 g
same,thickening of collagen bundles in liver (Sirius red staining),[1]; rats given both dimethylnitrosamine and Halofuginone 5 mg/kg diet,markedly reduced
same,rats died by the end of three weeks,"[1]; rats given both dimethylnitrosamine and Halofuginone, four of six died with dimethylnitrosamine alone",one of the six
same,increased collagen α1(I) gene expression in liver,[2]; 0.25% dimethylnitrosamine plus Halofuginone,abolished
same,dimethylnitrosamine-induced increase in liver hydroxyproline concentration,"[2]; 0.25% dimethylnitrosamine, Halofuginone in diet",completely inhibited
same,reduction of fibrotic scores for liver,[3]; Halofuginone plus TAA vs TAA alone (prevention),43%
same,effect on body weight,"[3]; rat, in vivo",no effect
same,effect on spleen weight,"[3]; rat, in vivo",no effect
same,thickening of collagen bundles in liver (Sirius red staining),"[3]; rats given both TAA (200 mg/kg i.p. twice weekly, 12 weeks) and Halofuginone 5 ppm in diet from three days before TAA",markedly reduced
same,average double-blind liver fibrosis score,"[3]; scale of 0-4, rats given both Halofuginone and TAA (prevention), TAA alone 2.16±0.7",1.25±0.8
same,synthesis of collagen type I in bone chondrocytes in vitro,collagen type I,inhibits
same,thickening of collagen bundles in liver (Sirius red staining),[4]; Halofuginone given for four weeks after twelve weeks of TAA,markedly reduced
same,average double-blind liver fibrosis score,"[4]; scale of 0-4, group 3, Halofuginone after twelve weeks TAA, TAA alone 2.16±0.7 (group 1) or 3.06±1.7 (group 2)",1.18±1.6
same,bile duct ligation-induced increase in collagen synthesis,[5]; [8],significantly reduced
same,bile duct ligation-induced increase in collagen α1(I) gene expression,[5]; [8],significantly reduced
same,"serum alanine aminotransferase, higher in rats not given Halofuginone than in rats fed Halofuginone",[5]; [9],56%
same,serum alkaline phosphatase in rats not given Halofuginone relative to rats fed Halofuginone,[5]; [9],257%
same,"serum aspartate aminotransferase, higher in rats not given Halofuginone than in rats fed Halofuginone",[5]; [9],15%
same,pathological expression of smooth muscle actin by stellate cells,stellate cells [6],significantly reduced
same,pathological expression of smooth muscle actin by stellate cells,stellate cells [7],prevented
